In brackets after ≈: the same amount, converted by molar mass.
What was measured:
[1] = Stability of crystalline forms on storage at 40° C. for 20 days, purity by HPLC; assay type: physicochemical; settings: for Purity after storage in the thermostatically controlled containers for 20 days / Purity before storage: HPLC
Description: Crystalline forms II, III, IV and VI are respectively placed in a thermostatically controlled container at 40° C. for 20 days. The stability of the said crystalline forms is assessed by high performance liquid chromatography.
Chromatographic conditions: octadecylsilane bonded silica as filler; a mixed solution of 10 mM/L phosphate buffer (adjusted to pH 7.0 by sodium hydroxide) and acetonitrile in 2:7 by volume as mobile phase; column temperature 40° C.; detection wavelength 220 nm. The purity is determined using an internal standard method.
The crystalline forms II, III, IV and VI were formulated with the mobile phase as 1 mg/mL solution. 10 μL of each of the solution was removed and injected into the liquid chromatograph. The chromatograms were recorded.
The assay was carried out using an external standard method as described under Purity Measurement of the Sample.

[2] = Solubility measurement in water by HPLC, external standard method; assay type: physicochemical
Description: 3. Solubility Measurement in Water
The measurement was carried out by HPLC using an external standard method.

Row | Purity after storage in the thermostatically controlled containers for 20 days ([1]; 40° C., 20 days) [%] | Purity before storage [1] [%] | Stability compared with the existing crystalline forms ([1]; 40° C., 20 days) | Solubility compared with the existing crystalline forms [2] | solubility ([2]; HPLC) [µg/mL] | Structure (SMILES)
1 | 99.24 | 99.79 | – | – | – | COc1ccc2cccc(CCNC(C)=O)c2c1 [crystalline form II, N-[2-(7-methoxy-1-naphthyl)ethyl]acetamide]
2 | 99.10 | 99.77 | – | – | – | COc1ccc2cccc(CCNC(C)=O)c2c1 [crystalline form III, N-[2-(7-methoxy-1-naphthyl)ethyl]acetamide]
3 | 99.54 | 99.82 | – | – | – | COc1ccc2cccc(CCNC(C)=O)c2c1 [crystalline form IV, N-[2-(7-methoxy-1-naphthyl)ethyl]acetamide]
4 | 99.55 | 99.60 | superior | superior | 1240 (≈ 5.1 mM) | COc1ccc2cccc(CCNC(C)=O)c2c1 [crystalline form VI, N-[2-(7-methoxy-1-naphthyl)ethyl]acetamide]
